Experimental data from US10588896B2, “Agents for the treatment of retroviral infectious diseases” (IMMUNOLOGIK GMBH, priority 2014, dated 2020).
“Also recorded” adds a separate entry of the source. Read-outs that look alike come from different tables or passages of the source.

How the values were obtained:
HIV-1NL4-3 (R5 tropic) = assay: HIV-1 replication in infected PBMC cultures (macrophages), reverse transcriptase activity in supernatant; format: cell-based; details: for reduction of the HIV-1 replication capacity: 5 donors
From the text: As could be shown in the preceding example that PR-619 inhibits the late processes in Gag processing this effect on the spread of infection was investigated. According to the invention, isolated primary human peripheral blood mononuclear cell (PBMC) cultures were infected to this aim with the virus strain HIV-1NL4-3(X4 tropic) or HIV-1 NLNL4-3(R5 tropic). One day after infection cells were washed with PBS (phosphate buffer saline), provided with fresh medium containing the DUB inhibitor PR-619 in several non-cytotoxic concentrations (3.5 μM, 7 μM, 14 μM, 28 μM). The treatment with DUB inhibitors was carried out over the entire experimental period (“permanent treatment”) or only on Day 1 and Day 3 after infection (“structured treatment”). In the infection with HIV-1NL4-3 (R5 tropic), only a permanent treatment was performed. Each 2-3 days samples from the cell culture supernatants were taken, frozen and later on used for determining reverse transcriptase activity. Concomitantly, 80% of the cell culture medium was replaced and fresh PR-619 was added. Reverse transcriptase activity (ccpm) was determined in the cell-free cell culture supernatants and plotted against time (FIGS. 4A and 4B; the black arrows indicate the treatment with PR-619).
In permanent treatment 3.5 μM yielded a reduction by 35%(±8%), 7 μM a reduction by 60%(±9%) and 14 μM by 100%.
For comparative purposes, the anti-retroviral effect found for PR-619 was compared with three other DUB inhibitors P005091, WP1130 and P22077. Experiments were carried out as described in Example 2.
In order to clarify the question whether a combined permanent treatment with PR-619 and the proteasome inhibitor bortezomib (Velcade®) causes a synergistic effect on the replication capacity of HIV-1, a cross titration was carried out with both substances (analogous to Example 2 and 3). Herein, PBMC cultures were treated permanently after infection with the virus strain HIV-1NL4-3, first only with the DUB inhibitor PR-619 or with the proteasome inhibitor bortezomib in non-toxic increasing concentrations (PR-619: 0.3 μM, 0.9 μM, 2.75 μM and 8 μM; bortezomib: 0.6 nM, 1.5 nM, 5.3 nM and 16 nM).
Herein, the cells were treated permanently with constantly 0.6 nM bortezomib and increasing concentrations of PR-619 (0.3 μM, 0.9 μM, 2.7 μM and 8 μM). Experiments were carried out as described in Example 2. […] The DUB inhibitor PR-619 is able to inhibit the HIV-1 replication beginning with a concentration of 2.7 μM (FIG. 12B).

HIV-1NL4-3 (X4 tropic) = assay: HIV-1 replication in infected PBMC cultures (T cells), reverse transcriptase activity in supernatant; format: cell-based; details: for HIV-1 replication / inhibition of the HIV-1 replication / reduction of the HIV-1 replication capacity (AUC) / concentration beginning with which HIV-1 replication is inhibited: T cells; for HIV-1 replication: structured and permanent treatment; for reduction of the HIV-1 replication capacity (AUC): 6 donors; for concentration beginning with which HIV-1 replication is inhibited: substance alone
Procedure: According to the invention, isolated primary human peripheral blood mononuclear cell (PBMC) cultures were infected to this aim with the virus strain HIV-1NL4-3(X4 tropic) or HIV-1 NLNL4-3(R5 tropic). […] The treatment with DUB inhibitors was carried out over the entire experimental period (“permanent treatment”) or only on Day 1 and Day 3 after infection (“structured treatment”). In the infection with HIV-1NL4-3 (R5 tropic), only a permanent treatment was performed. Each 2-3 days samples from the cell culture supernatants were taken, frozen and later on used for determining reverse transcriptase activity. Concomitantly, 80% of the cell culture medium was replaced and fresh PR-619 was added. Reverse transcriptase activity (ccpm) was determined in the cell-free cell culture supernatants and plotted against time (FIGS. 4A and 4B; the black arrows indicate the treatment with PR-619).
For six different donors the area under the curve (AUC) in the HIV-1 replication profiles after infection of PBMCs with T-cell tropic virus was determined, representing the HIV-1 replication capacity.
Experiments were carried out as described in Example 2. […]

[1] = test system: MHC-I antigen presentation of Gag-derived epitopes; assay: MHC-I antigen presentation of Gag-derived SL epitope in HeLa-Kb cells, FACS with mAB 25D1.16; format: cell-based, human; details: HeLa-Kb cells transfected with Gag-SL, 7 and 14 μM, dose-dependent
From the text: Since there is no conformation-dependent MHC-I specific antibody that could detect Gag epitopes bound to human MHC-I molecules the ovalbumin-derived sequence […] (SL) was introduced as a model epitope into the non-structured SP1 spacer region of Gag. For measuring the MHC-I antigen presentation, HeLa cells constitutively expressing the murine SL-binding MHC-I allotype H2-Kb (HeLa-Kb) (Porgador et al., 1997, Immunity 6(6), 715-726) were transfected with expression plasmids coding for Gag-SL proteins. Performing flow cytometric analyses the monoclonal antibody (mAB) 25D1.16 was used which recognizes specifically SL in the complex with H2-Kb.
24 h after transfection the cells were incubated overnight with different concentrations of the DUB inhibitor PR-619 (7 and 14 μM).
Then, an acid wash (acid washing buffer pH 3) was carried out for removing the H2-Kb-SL complexes from the cell surface. Thereafter, the cells were incubated with and without PR-619 for 4 h at 37° C. and then the newly loaded H2-Kb-SL complexes at the cell surface under inhibition with PR-619 were determined by FACS analysis with the monoclonal AB 25D1.16. For compensating possible differences in the expression level of Gag-SL, the mean fluorescence intensity (MFI) of the 25D1.16 staining was normalized to the MFI of the intracellular Gag signal.

HLAC cultures = assay: WST assay cytotoxicity in HLAC cultures from ex vivo tonsillar tissue; format: cell-based, human
[2] = test system: HIV-1 Gag structure proteins; assay: Western Blot analysis of HIV-1 Gag processing in HeLa cells transfected with pNLΔenv (cell and VLP fraction); format: cell-based
Procedure: In order to investigate whether PR-619 and its derivatives inhibit the processing of HIV-1 Gag structure proteins, Western Blot (WB) analyses were carried out. Therefore, HeLa cell cultures were transfected with the pNLΔenv plasmid which encodes for HIV-1 proteins excluding the env envelope proteins. This enables the production of virus-like particles (VLPs), an established in vitro model in HIV-1 research. 24 h after transfection the cells were transferred to reaction vessels, and a pre-incubation with PR-619 for 1 h was performed. Thereupon, the cells were washed three times with PBS and incubated for 4 h in fresh RPMI medium either with 20 μM PR-619 (Merck-Millipore) or with the corresponding amount of DMSO as solvent control at 37° C.
Then a separation into a cell and a VLP fraction was effected by means of centrifugation. VLPs were purified from the cell culture supernatants via a 20% sucrose cushion. Cells were then washed with PBS and lysed with RIPA buffer. Protein concentrations were determined by means of Bradford protein assays and assimilated for the respective lysates. […]
A densitometric evaluation of Gag processing in the VLP fraction was carried out with the analysis program AIDA®. The densitometric evaluation allows for the quantification of signal intensities in Western Blot and thus conclusions on the quantity of a certain protein in the sample. […]

[3] = test system: HIV-1NL4-3 (X4-tropic) or HIV-1NL4-3 (R5-tropic); assay: HIV-1 replication in human lymphoid aggregate culture (HLAC) ex vivo tonsillar tissue; format: cell-based; details: for reduction of the HIV-1 replication capacity: T cells and macrophages, permanent treatment, 3 replication profiles
Procedure: In order to substantiate the inhibition of the HIV replication under treatment with PR-619, as observed in Example 2, according to the invention human ex vivo cultivated tonsillar tissue was infected with the virus strain HIV-1NL4-3 (X4-tropic) or HIV-1NL4-3 (R5-tropic). The experiments were carried out as described in Example 2.

CC(=O)c1cc([N+](=O)[O-])c(Sc2cccc(Cl)c2Cl)s1 [P005091, 1-[5-[(2,3-dichlorophenyl)thio]-4-nitro-2-thienyl]-ethanone, reference compound]
toxicity (WST assay) (PBMC cultures; 0.75-3 μM, day 13): shows no toxicity
HIV-1 replication (HIV-1NL4-3 (R5 tropic); 0.75 μM, 1.5 μM and 3 μM): does not inhibit HIV-1 replication
HIV-1 replication (HIV-1NL4-3 (X4 tropic); 0.75 μM, 1.5 μM and 3 μM): does not inhibit HIV-1 replication

CC(=O)c1cc([N+](=O)[O-])c(Sc2ccc(F)cc2F)s1 [P22077, reference compound]
general cytotoxic damage of the host cell (PBMC cultures; 7.5 μM, 15 μM, 30 μM and 60 μM): does not exist
HIV replication (HIV-1NL4-3 (X4 tropic); 7.5 μM, 15 μM, 30 μM and 60 μM): nearly complete inhibition of HIV replication

N#CSc1cc(SC#N)c(N)nc1N [PR-619, 2,6-diaminopyridine-3,5-bis(thiocyanate)]
concentration at which a clear toxic effect starts (PBMC cultures; PBMC, 15 days): 28 µM
toxic effect (WST assay) (PBMC cultures; antivirally effective concentrations, observation period of 15 days): did not display any significant toxic effect; also recorded: does not display a significant toxic effect
toxic effect (WST assay) (PBMC cultures; highest used concentration of 8 μM, permanent treatment): did not show either a clear toxic effect
reduction of the HIV-1 replication capacity (HIV-1NL4-3 (R5 tropic); permanent treatment, 3.5 μM): 35%(±8%)
reduction of the HIV-1 replication capacity (HIV-1NL4-3 (R5 tropic); permanent treatment, 7 μM): 60%(±9%)
reduction of the HIV-1 replication capacity (HIV-1NL4-3 (R5 tropic); permanent treatment, 14 μM): 100%
increase of MHC-I antigen presentation of Gag-derived epitopes [1]: 6 fold
antiviral efficacy (concentration) (HIV-1NL4-3 (X4 tropic); PBMC): about 3.5 μM
inhibition of the HIV-1 replication (HIV-1NL4-3 (X4 tropic); 3.5 μM, permanent treatment): complete
inhibition of the HIV-1 replication (HIV-1NL4-3 (X4 tropic); 3.5 μM, structured treatment): clear
reduction of the HIV-1 replication capacity (AUC) (HIV-1NL4-3 (X4 tropic); permanent treatment, 3.5 μM): 50%(±16%)
reduction of the HIV-1 replication capacity (AUC) (HIV-1NL4-3 (X4 tropic); permanent treatment, 7 μM): 97%(±15%)
reduction of the HIV-1 replication capacity (AUC) (HIV-1NL4-3 (X4 tropic); permanent treatment, 14 μM): 100%
concentration beginning with which HIV-1 replication is inhibited (HIV-1NL4-3 (X4 tropic); permanent treatment): 2700 nM
reduction of the HIV-1 replication capacity (AUC) (HIV-1NL4-3 (X4 tropic); structured treatment, 3.5 μM): 23%(±14%)
reduction of the HIV-1 replication capacity (AUC) (HIV-1NL4-3 (X4 tropic); structured treatment, 7 μM): 94%(±14%)
reduction of the HIV-1 replication capacity (AUC) (HIV-1NL4-3 (X4 tropic); structured treatment, 14 μM): 100%
toxic effect (WST assay) (HLAC cultures; all applied antiretrovirally effective concentrations, 15 days): did not display any significant toxic effect
toxic effects (WST assay) (HLAC cultures; highest concentration of 10 μM): no toxic effects were observed
Gag processing (Western Blot) ([2]; 20 μM PR-619, 4 h, HeLa cells transfected with pNLΔenv): significantly inhibits Gag processing
generation of the main Gag processing product CA (densitometric evaluation, VLP fraction) ([2]; 20 μM PR-619, VLP fraction): clearly inhibited
inhibitory effect on the HIV-1 replication ([3]; 1.25 μM): did not exert an inhibitory effect
inhibition of the replication ([3]; 2.5 μM, 5 μM and 10 μM): clear, respectively complete inhibition of the replication
reduction of the HIV-1 replication capacity ([3]; 2.5 μM): 40%(±9%)
reduction of the HIV-1 replication capacity ([3]; 5 μM): 86%(±2%)
reduction of the HIV-1 replication capacity ([3]; 10 μM): completely

COc1ccc(C[C@H](NC(=O)[C@H](C)NC(=O)CN2CCOCC2)C(=O)N[C@@H](Cc2ccccc2)C(=O)[C@@]2(C)CO2)cc1 [PR-957, reference compound]
toxicity (WST assay) (PBMC cultures; 20-160 nM, permanent treatment): did not display any toxicity
concentration beginning with which HIV-1 replication is inhibited (HIV-1NL4-3 (X4 tropic); permanent treatment): 80 nM

CCC[C@H](NC(=O)/C(C#N)=C/c1cccc(Br)n1)c1ccccc1 [WP1130, (2E)-3-(6-bromo-2-pyridinyl)-2-cyano-N-[(1S)-1-phenylbutyl]-2-propenamide, reference compound]
toxicity (WST assay) (PBMC cultures; concentration >3 μM, day 13): complete death of the cells
reduction in living cells (PBMC cultures; permanent treatment, 3 μM, day 13): 40%
HIV-1 replication (HIV-1NL4-3 (R5 tropic); 3 μM and 6 μM): no significant reduction of the HIV-1 replication
HIV-1 replication (HIV-1NL4-3 (X4 tropic); 3 μM and 6 μM): no significant reduction of the HIV-1 replication

CC(C)C[C@H](NC(=O)[C@H](Cc1ccccc1)NC(=O)c1cnccn1)B(O)O [bortezomib, reference compound]
reduction in living cells (PBMC cultures; 16 nM, permanent treatment): 60%
toxicity (WST assay) (PBMC cultures; 0.6-5.3 nM, permanent treatment): did not display any toxicity
concentration beginning with which HIV-1 replication is inhibited (HIV-1NL4-3 (R5 tropic); permanent treatment, substance alone): 5.3 nM
concentration beginning with which HIV-1 replication is inhibited (HIV-1NL4-3 (X4 tropic); permanent treatment): 5.3 nM
